Literature values, collected in patent publication US12084679B2, “Methods of in vitro differentiation of midbrain dopamine (mDA) neurons” (MEMORIAL SLOAN-KETTERING CANCER CENTER, priority 2015, dated 2024).

Key:
[1] = tested on: rodent GSK3β homologs
[2] = target: T1, ALK2 (Homo sapiens, UniProt Q04771)
T1 sequence (Q04771 21-509): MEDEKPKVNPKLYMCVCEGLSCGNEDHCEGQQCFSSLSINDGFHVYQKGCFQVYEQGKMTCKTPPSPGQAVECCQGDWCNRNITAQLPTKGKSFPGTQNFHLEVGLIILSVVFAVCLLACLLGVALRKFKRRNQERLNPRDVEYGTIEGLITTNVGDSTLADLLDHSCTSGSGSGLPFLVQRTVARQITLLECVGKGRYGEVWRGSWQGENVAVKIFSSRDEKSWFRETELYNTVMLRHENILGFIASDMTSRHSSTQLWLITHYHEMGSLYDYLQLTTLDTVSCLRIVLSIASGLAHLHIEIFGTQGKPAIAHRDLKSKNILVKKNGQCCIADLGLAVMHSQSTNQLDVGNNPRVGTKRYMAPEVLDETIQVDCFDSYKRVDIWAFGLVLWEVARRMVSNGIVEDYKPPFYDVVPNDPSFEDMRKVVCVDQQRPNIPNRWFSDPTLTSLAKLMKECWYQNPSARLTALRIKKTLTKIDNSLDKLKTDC

[3] = target: ALK3 (Homo sapiens, UniProt P36894)
[4] = target: ALK6 (Homo sapiens, UniProt O00238)
Chain of ALK6 (O00238 14-502): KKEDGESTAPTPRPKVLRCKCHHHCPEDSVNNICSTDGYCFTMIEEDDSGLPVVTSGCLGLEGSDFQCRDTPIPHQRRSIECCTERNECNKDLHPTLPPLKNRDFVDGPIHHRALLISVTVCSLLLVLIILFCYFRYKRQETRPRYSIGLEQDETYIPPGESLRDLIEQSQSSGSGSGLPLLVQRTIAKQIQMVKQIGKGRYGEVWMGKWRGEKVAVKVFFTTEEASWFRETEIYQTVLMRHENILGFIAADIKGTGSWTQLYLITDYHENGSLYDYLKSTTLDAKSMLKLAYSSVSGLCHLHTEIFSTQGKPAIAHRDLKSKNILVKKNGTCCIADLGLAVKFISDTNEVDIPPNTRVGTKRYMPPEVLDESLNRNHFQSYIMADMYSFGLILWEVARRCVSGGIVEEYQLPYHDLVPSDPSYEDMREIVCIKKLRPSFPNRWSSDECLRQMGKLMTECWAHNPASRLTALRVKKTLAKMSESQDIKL

Chain of ALK3 (P36894 24-532, species assumed): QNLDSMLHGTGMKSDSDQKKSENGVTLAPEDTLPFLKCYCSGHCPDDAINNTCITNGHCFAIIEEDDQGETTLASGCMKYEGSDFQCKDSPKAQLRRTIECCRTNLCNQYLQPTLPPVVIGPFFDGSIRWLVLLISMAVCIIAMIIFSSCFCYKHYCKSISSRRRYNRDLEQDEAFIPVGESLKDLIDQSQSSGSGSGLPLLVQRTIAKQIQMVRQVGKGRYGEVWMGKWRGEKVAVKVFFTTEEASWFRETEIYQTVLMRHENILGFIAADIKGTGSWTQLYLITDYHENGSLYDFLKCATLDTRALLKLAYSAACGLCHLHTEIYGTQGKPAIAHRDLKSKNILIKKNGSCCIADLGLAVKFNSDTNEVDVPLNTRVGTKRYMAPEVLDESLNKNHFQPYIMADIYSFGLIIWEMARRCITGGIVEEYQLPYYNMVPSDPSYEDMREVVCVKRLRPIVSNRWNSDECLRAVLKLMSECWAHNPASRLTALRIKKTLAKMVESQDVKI

IC50 values against rodent GSK3β homologs [1] | inhibitor of ALK2 [2] | inhibitor of ALK3 [3] | inhibitor of ALK6 [4] | SMILES
nanomolar | – | – | – | Cc1c[nH]c(-c2cnc(NCCNc3ccc(C#N)cn3)nc2-c2ccc(Cl)cc2Cl)n1 [CHIR99021, 6-(2-(4-(2,4-dichlorophenyl)-5-(4-methyl-H-imidazol-2-yl)pyrimidin-2-ylamino)ethylamino)nicotinonitrile]
– | highly potent | highly potent | highly potent | c1ccc2c(-c3cnn4cc(-c5ccc(N6CCNCC6)cc5)cnc34)ccnc2c1 [LDN193189, 4-(6-(4-(piperazin-1-yl)phenyl)pyrazolo[1,5-a]pyrimidin-3-yl)quinoline]
